How the values were obtained:
[1] = molecular target: T1, PDGF-receptor beta enzyme comprising the tyrosine kinase domain (Homo sapiens, UniProt P09619); experiment: Inhibition of PDGF-receptor kinase activity (cell-free, PLC1 peptide, 33P Flashplate); assay type: biochemical; conditions: PDGF-R kinase activity; for inhibition at 10 µM: compound at 10 uM, read-out: Percent Inhibition @ 10 uM; for IC50: read-out: IC50
T1 construct: from amino acid 545 to 1106 of GenBank Access NO: AAA36427
Procedure, shortened: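 Recombinant kinase domain (aa 545–1106) phosphorylated a biotinylated PLC1 peptide with 5 μM ATP plus 33P-γ-ATP, in Tris pH 8, MgCl2, Na3VO4 and 1 mM DTT, for 60 min at 30 °C. Retained 33P was counted after washing. IC50 is the concentration halving activity versus no-inhibitor reactions.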

c-Abl kinase = c-Abl kinase (Abelson murine leukemia virus, UniProt P00521); experiment: Inhibition of c-Abl kinase activity (cell-free, Abl peptide substrate, 33P Flashplate); assay type: biochemical; conditions: IC50 for the c-Abl kinase activity
Procedure: The inhibitory activity of compounds within the scope of the invention on c-Abl kinase activity was tested according to the following procedure.
• 1. 10× Kinase Buffer [500 mM Tris-HCl pH=8, 100 mM MgCl2, 1 mM Na3VO4] • 2. 10 mM DTT [final concentration 1 mM] • 3. 10 mM ATP [final concentration 5 μM] (Gibco, Cat No:18330-019, Carlsbad, Calif.) • 4. ^33P-γ-ATP [NEG-602H; 2000–3000 Ci/mmol], 2 μCuries per well at 10 μCi/μl (0.2 μl/well) • 5. Abl enzyme (New England Biolabs, Cat No. P6050L, Beverly, Mass.) at 100 Units/μl use 10 Units/well (0.1 μl/well) • 6. Enzyme Dilution Buffer [50 mM Tris-HCl pH=8.0, 0.1% BSA] • 7. Wash/Stop Buffer [PBS+100 mM EDTA] • 8. NEN Streptavidin Flashplates (New England Nuclear, Cat No. SMP-103, Boston, Mass.). • 9. Abl Peptide Substrate (Biotin-[…]-amide) at 1 mM in 50 mM Tris-HCL pH=8.0. (Use at 1.0 μM). Procedure
Reagents were first mixed according to the following regimen:
The above reaction mixture was dispensed into each well of a Flashplate at 70 μl/well. To test the effect of a compound on Abl kinase activity, the test compound either in a fixed concentration or in serially diluted concentrations in 100% DMSO was added to appropriate wells at 1 μl/well.
Enzyme Abl was diluted in enzyme dilution buffer as following:
The kinase reaction was started by adding 30 μl of diluted Abl enzyme solution to each well on the Flashplate containing hot ATP (2 μCi/well) and Abl peptide substrate (at 1 μM final conc.), except wells of column 12 rows E and F, which were used to calculate the plate background. The Flashplate was swirled to mix and was incubated at 30° C. for 60 minutes. Then, the reaction mixture was discarded and the Flashplate was washed 3 times each with 200 μL Wash/Stop Buffer. Subsequently, each well on the Flashplate was filled with 200 μl of Wash/Stop buffer. The amount of ^33P retained in each well was measured using a Packard TopCount after the plate was sealed with a transparent plate sealer.
In order to test the potency of inhibition of present compounds, an IC50 for an individual compound was measured using the above procedure. As used herein, the IC50 for c-Abl kinase activity refers to the concentration of an inhibitor at which the activity of c-Abl kinase is reduced by one-half as compared with reactions containing no inhibitor.

Sequence of c-Abl kinase (P00521 115-385): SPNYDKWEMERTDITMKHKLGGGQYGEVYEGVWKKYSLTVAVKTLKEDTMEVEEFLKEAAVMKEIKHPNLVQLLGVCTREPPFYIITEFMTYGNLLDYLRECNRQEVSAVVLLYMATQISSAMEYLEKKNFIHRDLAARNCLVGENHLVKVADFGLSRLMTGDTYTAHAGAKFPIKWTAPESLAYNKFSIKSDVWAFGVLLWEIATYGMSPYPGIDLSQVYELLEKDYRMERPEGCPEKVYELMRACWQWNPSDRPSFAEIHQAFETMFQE
T1 sequence (P09619 545-1106): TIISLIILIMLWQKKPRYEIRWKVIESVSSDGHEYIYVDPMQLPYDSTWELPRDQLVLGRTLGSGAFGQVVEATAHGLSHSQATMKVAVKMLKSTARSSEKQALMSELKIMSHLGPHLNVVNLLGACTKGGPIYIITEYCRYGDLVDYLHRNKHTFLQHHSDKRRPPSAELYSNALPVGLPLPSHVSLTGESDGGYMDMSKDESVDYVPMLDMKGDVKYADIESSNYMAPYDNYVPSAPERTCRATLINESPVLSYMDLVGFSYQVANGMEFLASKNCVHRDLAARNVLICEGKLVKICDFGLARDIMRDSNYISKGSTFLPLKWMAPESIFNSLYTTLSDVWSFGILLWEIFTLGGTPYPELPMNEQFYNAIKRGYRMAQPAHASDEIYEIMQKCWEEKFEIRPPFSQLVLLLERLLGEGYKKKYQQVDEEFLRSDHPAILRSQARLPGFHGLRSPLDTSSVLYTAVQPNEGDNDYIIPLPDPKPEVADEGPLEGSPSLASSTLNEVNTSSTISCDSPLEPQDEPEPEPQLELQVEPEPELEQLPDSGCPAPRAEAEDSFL

| SMILES | inhibition at 10 µM [1] [%] | IC50 [1] [nM] | IC50 (c-Abl kinase) [nM] |
| --- | --- | --- | --- |
| COc1cc2c(cc1OCCCN1CCCC1)Cc1c-2n[nH]c1Nc1cccc(F)c1 [Compound 180, (3-Fluoro-phenyl)-[7-methoxy-6-(3-pyrrolidin-1-yl-propoxy)-2,4-dihydro-indeno[1,2-c]pyrazol-3-yl]-amine] | 98.5 | 13.3 | 82 |
| COc1cc2c(cc1OCCCN1CCCC1)Cc1c-2n[nH]c1Nc1ccc(F)c(Cl)c1 [Compound 181, (3-Chloro-4-fluoro-phenyl)-[7-methoxy-6-(3-pyrrolidin-1-yl-propoxy)-2,4-dihydro-indeno[1,2-c]pyrazol-3-yl]-amine] | 74.5 | 15.4 | 56 |
| Cc1ccc2c(c1)-c1n[nH]c(Nc3cccc(F)c3)c1C2 [Compound 182, (3-Fluoro-phenyl)-(7-methyl-2,4-dihydro-indeno[1,2-c]pyrazol-3-yl)-amine] | 107 | 5 | 93 |
| Cc1ccc2c(c1)-c1n[nH]c(Nc3cc(F)ccc3F)c1C2 [Compound 185, (2,5-Difluoro-phenyl)-(7-methyl-2,4-dihydro-indeno[1,2-c]pyrazol-3-yl)-amine] | 84 | 50 | 666 |
| Clc1ccc2c(c1)Cc1c-2n[nH]c1Nc1cccnc1 [Compound 188, (6-Chloro-2,4-dihydro-indeno[1,2-c]pyrazol-3-yl)-pyridin-3-yl-amine] | 74 | 43.7 | 1400 |
| COc1cccc(Nc2[nH]nc3c2Cc2cc(Cl)ccc2-3)c1 [Compound 190, (6-Chloro-2,4-dihydro-indeno[1,2-c]pyrazol-3-yl)-(3-methoxy-phenyl)-amine] | 80 | 40 | 69 |
| COc1cc2c(cc1OCCCN(C)C)Cc1c-2n[nH]c1Nc1cccc(F)c1 [Compound 199, [6-(3-Dimethylamino-propoxy)-7-methoxy-2,4-dihydro-indeno[1,2-c]pyrazol-3-yl]-(3-fluoro-phenyl)-amine] | 83 | 5.9 | 27 |
| COc1cc2c(cc1OCCCN(C)C)Cc1c-2n[nH]c1Nc1ccc(F)c(Cl)c1 [Compound 200, (3-Chloro-4-fluoro-phenyl)-[6-(3-dimethylamino-propoxy)-7-methoxy-2,4-dihydro-indeno[1,2-c]pyrazol-3-yl]-amine] | 87 | 2 | 20 |
| Fc1ccc(Nc2[nH]nc3c2Cc2cc(F)ccc2-3)cc1 [Compound 201, (6-Fluoro-2,4-dihydro-indeno[1,2-c]pyrazol-3-yl)-(4-fluoro-phenyl)-amine] | 96 | 9 | 217 |
| Fc1ccc2c(c1)Cc1c-2n[nH]c1Nc1ccc(F)c(Cl)c1 [Compound 202, (3-Chloro-4-fluoro-phenyl)-(6-fluoro-2,4-dihydro-indeno[1,2-c]pyrazol-3-yl)-amine] | 77 | 12.4 | 2650 |
| COc1ccc(OC)c(Nc2[nH]nc3c2Cc2cc(F)ccc2-3)c1 [Compound 203, (2,5-Dimethoxy-phenyl)-(6-fluoro-2,4-dihydro-indeno[1,2-c]pyrazol-3-yl)-amine] | 86 | 16 | 160 |
| COc1cc(Nc2[nH]nc3c2Cc2cc(F)ccc2-3)cc(OC)c1 [Compound 204, (3,5-Dimethoxy-phenyl)-(6-fluoro-2,4-dihydro-indeno[1,2-c]pyrazol-3-yl)-amine] | 90 | 38 | 165 |
| COc1ccc(Nc2[nH]nc3c2Cc2cc(F)ccc2-3)cc1OC [Compound 205, (3,4-Dimethoxy-phenyl)-(6-fluoro-2,4-dihydro-indeno[1,2-c]pyrazol-3-yl)-amine] | 86 | 47 | 328 |
| COc1cc2c(cc1OC)-c1n[nH]c(Nc3cc(F)cc(F)c3)c1C2 [Compound 207, (3,5-Difluoro-phenyl)-(6,7-dimethoxy-2,4-dihydro-indeno[1,2-c]pyrazol-3-yl)-amine] | 89 | 10 | 62 |
| COc1cc2c(cc1OC)-c1n[nH]c(Nc3cccc(SC)c3)c1C2 [Compound 208, (6,7-Dimethoxy-2,4-dihydro-indeno[1,2-c]pyrazol-3-yl)-(3-methylsulfanyl-phenyl)-amine] | 82 | 3 | 9 |
| CCc1cccc(Nc2[nH]nc3c2Cc2cc(OC)c(OC)cc2-3)c1 [Compound 209, (6,7-Dimethoxy-2,4-dihydro-indeno[1,2-c]pyrazol-3-yl)-(3-ethyl-phenyl)-amine] | 99 | 32.8 | 7 |
| COc1cc2c(cc1OC)-c1n[nH]c(Nc3ccc(OCc4ccccc4)cc3)c1C2 [Compound 218, (4-Benzyloxy-phenyl)-(6,7-dimethoxy-2,4-dihydro-indeno[1,2-c]pyrazol-3-yl)-amine] | 81 | 2010 | 439 |
| COc1cc2c(cc1OCCCn1ccnc1)Cc1c-2n[nH]c1Nc1cccc(F)c1 [Compound 226, (3-Fluoro-phenyl)-[6-(3-imidazol-1-yl-propoxy)-7-methoxy-2,4-dihydro-indeno[1,2-c]pyrazol-3-yl]-amine] | 102 | 3 | 245 |
| COc1cc2c(cc1OCCCn1ccnc1)Cc1c-2n[nH]c1Nc1ccc(F)c(Cl)c1 [Compound 227, (3-Chloro-4-fluoro-phenyl)-[6-(3-imidazol-1-yl-propoxy)-7-methoxy-2,4-dihydro-indeno[1,2-c]pyrazol-3-yl]-amine] | 83.5 | 34.9 | 641 |
| COc1cc2c(cc1OC)C(C)c1c-2n[nH]c1Nc1ccccc1 (stereo not drawn) [Compound 247, (6,7-Dimethoxy-4-methyl-2,4-dihydro-indeno[1,2-c]pyrazol-3-yl)-phenyl-amine] | 96 | 70 | 33 |
| COc1cc2c(cc1OC)C(C)c1c-2n[nH]c1Nc1cccc(F)c1 (stereo not drawn) [Compound 249, (6,7-Dimethoxy-4-methyl-2,4-dihydro-indeno[1,2-c]pyrazol-3-yl)-(3-fluoro-phenyl)-amine] | 96 | 6 | 35 |
| COc1cccc(Nc2[nH]nc3c2C(C)c2cc(OC)c(OC)cc2-3)c1 (stereo not drawn) [Compound 253, (6,7-Dimethoxy-4-methyl-2,4-dihydro-indeno[1,2-c]pyrazol-3-yl)-(3-methoxy-phenyl)-amine] | 94 | 16.5 | 37.9 |
| COc1cc2c(cc1OC)C(C)c1c-2n[nH]c1Nc1cccc(Br)c1 (stereo not drawn) [Compound 256, (3-Bromo-phenyl)-(6,7-dimethoxy-4-methyl-2,4-dihydro-indeno[1,2-c]pyrazol-3-yl)-amine] | 89 | 8 | 55 |
| COc1cccc(Nc2[nH]nc3c2Cc2cc(OCC(O)CO)c(OC)cc2-3)c1 (stereo not drawn) [Compound 260, 3-[7-Methoxy-3-(3-methoxy-phenylamino)-2,4-dihydro-indeno[1,2-c]pyrazol-6-yloxy]-propane-1,2-diol] | 91 | 1.5 | 13 |
| COc1cc2c(cc1OCC(O)CO)Cc1c-2n[nH]c1Nc1ccc(F)c(Cl)c1 (stereo not drawn) [Compound 261, 3-[3-(3-Chloro-4-fluoro-phenylamino)-7-methoxy-2,4-dihydro-indeno[1,2-c]pyrazol-6-yloxy]-propane-1,2-diol] | 71 | 10 | 64 |
| COc1cc2c(cc1OCC(O)CO)Cc1c-2n[nH]c1Nc1cccc(F)c1 (stereo not drawn) [Compound 262, 3-[3-(3-Fluoro-phenylamino)-7-methoxy-2,4-dihydro-indeno[1,2-c]pyrazol-6-yloxy]-propane-1,2-diol] | 90 | 1 | 27 |

Reference: US7196110B2, “N-substituted tricyclic 3-aminopyrazoles as inhibitors for the treatment of cell proliferative disorders” (Janssen Phamaceutica N.V., priority 2002, dated 2007)
